# Assay results as given in the RepoRT retention time repository.
# Assay: HILIC, Waters ACQUITY UPLC BEH Amide, 100 × 2.1 mm, 1.7 µm; A: water + 0.125% formic acid + 10 mM ammonium formate; B: 5% water + 95% acetonitrile + 0.125% formic acid + 10 mM ammonium formate; gradient (min/%B) 0/100 2/100 7.7/70 9.5/40 10.25/30 12.75/100 17/100
# Conditions: stereoisomer not certain
row,LC retention time [min],Compound
1,5.62,"CN(C)c1nc2c(ncn2C2OC(CO)C(O)C2O)c(=O)[nH]1 (stereo not drawn) [N2,N2-Dimethylguanosine]"
2,6.4,CNc1nc2c(ncn2C2OC(CO)C(O)C2O)c(=O)[nH]1 (stereo not drawn) [N2-Methylguanosine]
3,1.48,CC(C)=CCNc1ncnc2c1ncn2C1OC(CO)C(O)C1O (stereo not drawn) [N6-Isopentenyladenosine]
4,8.87,CC(=O)NCCCCNCCCN [N8-Acetylspermidine]
5,9.1,"CN(C)C(CCCN=C(N)N)C(=O)O (stereo not drawn) [N,N-Dimethylarginine]"
6,1.29,"CN(C)C=O [N,N-Dimethylformamide]"
7,7.4,"CN(C)CC(=O)O [N,N-Dimethylglycine]"
8,3.48,OCC1OC(n2cnc3c(NC4CCCC4O)ncnc32)C(O)C1O (stereo not drawn) [N-2-Hydroxycyclopentyladenosine]
9,4.01,O=C(O)CNC(=O)c1ccco1 [N-(2-Furoyl)glycine]
10,8.16,CC(=O)NC(CCCN=C(N)N)C(=O)O [N-.alpha.-Acetyl-L-arginine]
11,1.43,CC(=O)NCCc1c[nH]c2ccc(O)cc12 [N-Acetyl-5-hydroxytryptamine]
12,8.11,CC(=O)NC(CC(=O)O)C(=O)NC(CCC(=O)O)C(=O)O (stereo not drawn) [N-Acetyl-Asp-Glu]
13,8.35,CC(=O)NCCC(=O)NC(Cc1cnc[nH]1)C(=O)O [N-Acetyl-L-carnosine]
14,8.18,CC(=O)N[C@@H](CCC(N)=O)C(=O)O [N-Acetyl-L-glutamine]
15,4.83,CC(=O)NC(C)C(=O)O (stereo not drawn) [N-Acetylalanine]
16,2.3,CC(=O)N1CCCCCC1=O [N-Acetylcaprolactam]
17,5.28,CC(=O)NC(CS)C(=O)O (stereo not drawn) [N-Acetylcysteine]
18,5.08,CC(=O)Nc1ccn(C2OC(CO)C(O)C2O)c(=O)n1 (stereo not drawn) [N-Acetylcytidine]
19,7.67,CC(=O)NC(CCC(=O)O)C(=O)O (stereo not drawn) [N-Acetylglutamic acid]
20,8.07,CC(=O)NC(Cc1cnc[nH]1)C(=O)O (stereo not drawn) [N-Acetylhistidine]
21,2.29,CC(=O)NC(CC(C)C)C(=O)O (stereo not drawn) [N-Acetylleucine]
22,7.01,CC(=O)NC1C(O)OC(CO)C(O)C1O (stereo not drawn) [N-Acetylmannosamine]
23,3.23,CSCCC(NC(C)=O)C(=O)O (stereo not drawn) [N-Acetylmethionine]
24,9.26,CC(=O)NC1C(O)CC(O)(C(=O)O)OC1C(O)C(O)CO (stereo not drawn) [N-Acetylneuraminic acid]
25,2.61,CC(=O)NC(Cc1ccccc1)C(=O)O (stereo not drawn) [N-Acetylphenylalanine]
26,7.67,CC(=O)NC(CO)C(=O)O (stereo not drawn) [N-Acetylserine]
27,2.81,CC(=O)NC(Cc1c[nH]c2ccccc12)C(=O)O (stereo not drawn) [N-Acetyltryptophan]

row,LC retention time [min],Compound
1,7.67,O=C(O)CNC(=O)OCc1ccccc1 [N-Benzyloxycarbonylglycine]
2,1.28,CC(C)CC(NC(=O)OCc1ccccc1)C(=O)O (stereo not drawn) [N-Carbobenzyloxyleucine]
3,2.95,O=C(O)CNC(=O)C=Cc1ccccc1 [N-Cinnamoylglycine]
4,1.2,O=CNC1CCCCC1 [N-Cyclohexylformamide]
5,3.93,CSCCC(NC=O)C(=O)O (stereo not drawn) [N-Formylmethionine]
6,3.6,CC(C)C(=O)NCC(=O)O [N-Isobutyrylglycine]
7,2.94,CC(C)CC(=O)NCC(=O)O [N-Isovalerylglycine]
8,7.67,CNC(C)C(=O)O (stereo not drawn) [N-Methylalanine]
9,2.53,CNC(CC(=O)O)C(=O)O (stereo not drawn) [N-Methylaspartic acid]
10,8.32,CNC(CCC(=O)O)C(=O)O (stereo not drawn) [N-Methylglutamic acid]
11,9.47,CNC(Cc1cnc[nH]1)C(=O)O (stereo not drawn) [N-Methylhistidine]
12,6.44,CCC(C)C(NC)C(=O)O (stereo not drawn) [N-Methylisoleucine]
13,6.45,CNC(CC(C)C)C(=O)O (stereo not drawn) [N-Methylleucine]
14,9.36,CNCCCCC(N)C(=O)O (stereo not drawn) [N-Methyllysine]
15,6.22,CNC(Cc1ccccc1)C(=O)O (stereo not drawn) [N-Methylphenylalanine]
16,7.11,CN1CCCC1C(=O)O (stereo not drawn) [N-Methylproline]
17,7.68,CNC(C(=O)O)C(C)O (stereo not drawn) [N-Methylthreonine]
18,6.79,CNC(Cc1ccc(O)cc1)C(=O)O (stereo not drawn) [N-Methyltyrosine]
19,6.99,CNC(C(=O)O)C(C)C (stereo not drawn) [N-Methylvaline]
20,8.31,CC(=O)NC(CCCN)C(=O)O [N-alpha-Acetyl-L-ornithine]
21,8.03,CC(=O)NCCCCC(N)C(=O)O (stereo not drawn) [N-epsilon-Acetyllysine]
22,1.32,COc1ccc(NC=O)c(C(=O)CCNC(C)=O)c1 [N-gamma-Acetyl-N-2-formyl-5-methoxykynurenamine]
23,6,CC(=O)NCCc1cnc[nH]1 [N-omega-Acetylhistamine]
24,8.15,CC(=O)N[C@@H](CCCCN)C(=O)O [N.alpha.-Acetyl-L-lysine]
25,7.35,CN[C@@H](CCCCN)C(=O)O [N.alpha.-Methyl-L-lysine]
26,9.29,"C[N+](C)(C)CCCCC(N)C(=O)[O-] (stereo not drawn) [NEPSILON,NEPSILON,NEPSILON-TRIMETHYLLYSINE]"

# Further lines, the compound ahead of its results:
row,Compound,LC retention time [min]
1,CC(=O)C1(O)CCC2C3CC(C)C4=CC(=O)CCC4(C)C3CCC21C (stereo not drawn) [Medroxyprogesterone],1.01
2,CC(=O)OC1(C(C)=O)CCC2C3C=C(C)C4=CC(=O)CCC4(C)C3CCC21C (stereo not drawn) [Megestrol Acetate],0.96
3,COc1ccc2[nH]cc(CCNC(C)=O)c2c1 [Melatonin],1.24
4,CC1CCN(CCCC(=O)c2ccc(F)cc2)CC1 [Melperone],2.12
5,CC12CC3CC(C)(C1)CC(N)(C3)C2 [Memantine],4.24
6,COc1cc(C)nc(-n2nc(C)cc2OC)n1 [Mepirizole],1.03
7,Cc1cccc(C)c1NC(=O)C1CCCCN1C (stereo not drawn) [Mepivacaine],2.96
8,CCCC(C)(COC(N)=O)COC(N)=O [Meprobamate],1.25
9,CN1CCCCC1CCN1c2ccccc2Sc2ccc(S(C)=O)cc21 (stereo not drawn) [Mesoridazine],4.24
10,CN(C)C(=N)N=C(N)N [Metformin],5.44
11,CCC(=O)C(CC(C)N(C)C)(c1ccccc1)c1ccccc1 (stereo not drawn) [Methadone],2
12,CNC(C)Cc1ccccc1 (stereo not drawn) [Methamphetamine],3.33
13,Cc1ccccc1-n1c(C)nc2ccccc2c1=O [Methaqualone],1.1
14,CSCCC(N)C(=O)O (stereo not drawn) [Methionine],7.37
15,CS(=O)CCC(N)C(=O)O (stereo not drawn) [Methioninesulfoxide],8.62
16,C=CCC1(C(C)C#CCC)C(=O)NC(=O)N(C)C1=O (stereo not drawn) [Methohexital],6.9
17,CN(Cc1cnc2nc(N)nc(N)c2n1)c1ccc(C(=O)NC(CCC(=O)O)C(=O)O)cc1 (stereo not drawn) [Methotrexate],7.67
18,COc1ccc(OC)c(C(O)C(C)N)c1 (stereo not drawn) [Methoxamine],4.75
19,CCC=CCC1C(=O)CCC1CC(=O)OC (stereo not drawn) [Methyl jasmonate],1.04
20,CC(O)C(C)C(=O)O (stereo not drawn) [Methyl-3-hydroxybutyric acid],6.22
21,COC(=O)c1cc(O)c(O)c(O)c1 [Methylgallate],1.43
22,COC(=O)CN [Methylglycinate],5.29
23,CC12CCC(=O)C=C1CCC1C2CCC2(C)C1CCC2(C)O (stereo not drawn) [Methyltestosterone],1.04

row,Compound,LC retention time [min]
1,COC(=O)C(N)Cc1ccc(O)cc1 (stereo not drawn) [Methyltyrosinate],4.23
2,CCC1(CC)C(=O)NCC(C)C1=O (stereo not drawn) [Methyprylon],1.18
3,Cc1ncc([N+](=O)[O-])n1CCO [Metronidazole],1.17
4,CCC(C)C(=O)OC1CCC=C2C=CC(C)C(CCC3CC(O)CC(=O)O3)C21 (stereo not drawn) [Mevastatin],0.99
5,Cc1ncc2n1-c1ccc(Cl)cc1C(c1ccccc1F)=NC2 [Midazolam],1.29
6,CC#CC1(O)CCC2C3CCC4=CC(=O)CCC4=C3C(c3ccc(N(C)C)cc3)CC21C (stereo not drawn) [Mifepristone],1
7,OCCN1CC(O)C(O)C(O)C1CO (stereo not drawn) [Miglitol],8.12
8,CCN(CC)C(=O)C1(c2ccccc2)CC1CN (stereo not drawn) [Milnacipran],3.23
9,Cc1[nH]c(=O)c(C#N)cc1-c1ccncc1 [Milrinone],1.6
10,CN1CCN2c3ncccc3Cc3ccccc3C2C1 (stereo not drawn) [Mirtazapine],3.08
11,O=C(NCCN1CCOCC1)c1ccc(Cl)cc1 [Moclobemide],2.03
12,NC(=O)CS(=O)C(c1ccccc1)c1ccccc1 (stereo not drawn) [Modafinil],1.27
13,CCCCCCCCC=CCCCCCCCC(=O)OCC(O)CO (stereo not drawn) [Monoolein],1.19
14,CCOc1cc(N)c(Cl)cc1C(=O)NCC1CN(Cc2ccc(F)cc2)CCO1 (stereo not drawn) [Mosapride],1.24
15,COc1c(N2CC3CCCNC3C2)c(F)cc2c(=O)c(C(=O)O)cn(C3CC3)c12 (stereo not drawn) [Moxifloxacin],4.69
16,COc1nc(C)nc(Cl)c1NC1=NCCN1 [Moxonidine],3.28
17,CC(OC1C(N)C(O)OC(CO)C1O)C(=O)O (stereo not drawn) [Muramic acid],8.28
18,CC(=O)Nc1ccc2c(c1)Cc1ccccc1-2 [N-2-Fluorenylacetamide],4.74
19,CNc1ccccc1 [N-Methylaniline],1.06
20,CNc1ccccc1C(=O)O [N-Methylanthranilic acid],1.22
21,CN1CCC(c2ccc(F)cc2)C(COc2ccc3c(c2)OCO3)C1 (stereo not drawn) [N-Methylparoxetine],2.2
22,CNCCc1cnc[nH]1 [N-alpha-methylhistamine],7.48
